The values below are quoted from earlier work in patent US20090274673A1, “COMPOSITION FOR TOPICAL TREATMENT OF ACNE” (priority 2008, published 2009).

The test system of series [1] is HIV. The following applies: virus incubated with zinc acetate.
For series [2], the system named is species of Fusarium, Gerlacia, Penicillium, and Aspergillus.
Series [3] concerns Staphylococcus aureus. The note with it: agar plate diffusion.
Series [4] relates to protein synthesis. The note with it: prokaryotes versus eukaryotes.
The test system of series [5] is hyper-permeable strains of Escherichia coli SC10909 and BAS847. The following applies: agar plate diffusion; hyper-permeable E. coli SC10909 and BAS847.
Series [6] relates to Saccharomyces cerevisiae. The following applies: against Saccharomyces cerevisiae.
Series [7] relates to Bacillus thuringiensis. The note with it: agar plate diffusion.
For series [8], the system named is Streptomyces avermitilis.
Series [9] concerns Staphylococcus epidermidis. The note with it: against Staphylococcus epidermidis.
Series [10] concerns Candida albicans. The following applies: against Candida albicans (a yeast-like fungus).
Series [11] has as its system Proteus vulgaris. The note with it: agar plate diffusion.

As for `CC(=O)[O-].CC(=O)[O-].[Zn+2]` [zinc acetate], in series [1], the HIV infectivity entry was “reduced”.
As to Iturin A, the growth inhibition entry in series [2] is on record as “inhibits the growth”.
On to `C/C(=C/C=C/C=C/C(C)C(=O)O)NC(=O)CC(O)\C(C)=C/C=C\C=C(C)\C=C\C=C/C=C/CNC(=O)C(O)CC(C)C` (centres unmarked) [bacillaene], for which the inhibitory effect entry in series [3] is “moderately potent”; in [5], “potent”; in [6], “ineffective”; in [7], “moderately potent”; in series [9], “ineffective”; in [10] it was “ineffective”. Moreover, the inhibitory effect entry in [11] is “moderately potent”. Moreover, the “selectivity of protein synthesis inhibition” value in [4] is “inhibiting protein synthesis only in prokaryotes and not in eukaryotes”. In addition, in series [8], the growth inhibition result was “inhibit the growth”.
